Measurements published in PubChem BioAssay AID330 (DTP/NCI, 2004).
Where “and” joins values, the source holds several entries; their conditions need not be identical. Identical values can stand only once. Inconclusive results and toxic doses are left out. How the source made its calls: active means survival T/C of 150% or more; inactive means T/C below 125% in these data.

Test system: P388 leukemia ip, CD2F1 mice, survival T/C
Assay: NCI In Vivo Anticancer Drug Screen. Data for tumor model P388 Leukemia (intraperitoneal) in CD2F1 (CDF1) mice
Conditions: endpoint: median survival time, higher = longer survival
How it was run: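 Mice carrying the transplanted tumor received test compound or vehicle. Survival was recorded in each group, and the value is the treated-group measurement divided by that of the vehicle-treated control group.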

[1] = dose: 50.0 mg/kg/injection, schedule: Q01DX005 (ip), vehicle: saline
[2] = dose: 200.0 mg/kg/injection, schedule: Q01DX009 (ip), vehicle: saline with Tween-80
[3] = dose: 50.0 mg/kg/injection, schedule: Q01DX009 (ip), vehicle: saline with Tween-80

Measured: T/C

O=c1[nH]cc(F)c(=O)[nH]1
inactive: dose: 7.5 mg/kg/injection, schedule: Q01DX009 (oral), vehicle: clinical formulation 107 % of control | dose: 7.5 mg/kg/injection, schedule: Q04DX003 (iv), vehicle: saline 107 % of control | dose: 7.8 mg/kg/injection, schedule: Q04DX003 (ip), vehicle: saline 99 % of control | dose: 10.0 mg/kg/injection, schedule: Q04DX002 (ip), vehicle: saline 123 % of control | dose: 13.0 mg/kg/injection, schedule: Q04DX002 (ip), vehicle: saline 106 % of control | dose: 15.0 mg/kg/injection, schedule: Q04DX003 (iv), vehicle: saline 109 % of control | dose: 20.0 mg/kg/injection, schedule: Q01DX009 (ip), vehicle: water 118 % of control | dose: 21.6 mg/kg/injection, schedule: Q04DX002 (ip), vehicle: saline 97 % of control | dose: 22.5 mg/kg/injection, schedule: Q03HX024 (ip), vehicle: saline 118 % of control | dose: 25.0 mg/kg/injection, schedule: Q01DX001 (iv), vehicle: saline 120 % of control | dose: 27.0 mg/kg/injection, schedule: Q01DX009 (ip), vehicle: water 97 % of control | dose: 28.0 mg/kg/injection, schedule: Q01DX009 (ip), vehicle: saline 101 % of control | dose: 30.0 mg/kg/injection, schedule: Q04DX003 (iv), vehicle: saline 124 % of control | dose: 36.0 mg/kg/injection, schedule: Q01DX009 (ip), vehicle: saline 100 % of control | dose: 36.0 mg/kg/injection, schedule: Q04DX002 (ip), vehicle: saline 112 % of control | dose: 45.0 mg/kg/injection, schedule: Q01DX009 (ip), vehicle: saline 99 % of control | dose: 48.0 mg/kg/injection, schedule: Q01DX005 (ip), vehicle: saline 109 % of control | dose: 50.0 mg/kg/injection, schedule: Q01DX001 (ip), vehicle: saline 119 % of control | [1] 112 % of control | dose: 60.0 mg/kg/injection, schedule: Q01DX009 (oral), vehicle: clinical formulation 94 % of control | dose: 60.0 mg/kg/injection, schedule: Q03DX003 (ip), vehicle: saline 99 % of control | dose: 60.0 mg/kg/injection, schedule: Q04DX003 (iv), vehicle: saline 122 % of control | dose: 66.0 mg/kg/injection, schedule: Q01DX001 (ip), vehicle: saline 120 % of control | dose: 75.0 mg/kg/injection, schedule: Q01DX005 (ip), vehicle: saline 99 % of control | dose: 88.0 mg/kg/injection, schedule: Q01DX001 (ip), vehicle: saline 115 % of control | dose: 90.0 mg/kg/injection, schedule: Q04DX003 (ip), vehicle: saline sonified 108 % of control | dose: 120.0 mg/kg/injection, schedule: Q01DX005 (ip), vehicle: saline 91 % of control | dose: 120.0 mg/kg/injection, schedule: Q01DX009 (ip), vehicle: saline 83 % of control | dose: 120.0 mg/kg/injection, schedule: Q04DX003 (iv), vehicle: saline 87 % of control | dose: 125.0 mg/kg/injection, schedule: Q04DX003 (ip), vehicle: saline 109 % of control | dose: 135.0 mg/kg/injection, schedule: Q04DX003 (ip), vehicle: saline 98 % of control | dose: 166.7 mg/kg/injection, schedule: Q04DX003 (ip), vehicle: saline 79 % of control and 81 % of control | dose: 400.0 mg/kg/injection, schedule: Q01DX001 (iv), vehicle: saline 100 % of control
active: dose: 6.25 mg/kg/injection, schedule: Q01DX009 (ip), vehicle: saline 163 % of control | dose: 7.5 mg/kg/injection, schedule: Q01DX009 (ip), vehicle: saline 167 % of control and 172 % of control | dose: 7.5 mg/kg/injection, schedule: Q03HX024 (ip), vehicle: saline 201 % of control | dose: 9.0 mg/kg/injection, schedule: Q01DX009 (ip), vehicle: saline 159 % of control | dose: 10.0 mg/kg/injection, schedule: Q03HX024 (ip), vehicle: saline 228 % of control | dose: 12.0 mg/kg/injection, schedule: Q01DX009 (ip), vehicle: saline 153 % of control and 166 % of control | dose: 12.5 mg/kg/injection, schedule: Q01DX005 (ip), vehicle: saline 167 % of control and 176 % of control | dose: 12.5 mg/kg/injection, schedule: Q01DX009 (ip), vehicle: saline 166 % of control | dose: 13.2 mg/kg/injection, schedule: Q01DX009 (ip), vehicle: saline 182 % of control and 213 % of control | dose: 13.2 mg/kg/injection, schedule: Q01DX009 (ip), vehicle: water 200 % of control | dose: 13.3 mg/kg/injection, schedule: Q01DX009 (ip), vehicle: saline sonified 165 % of control and 181 % of control and 200 % of control | dose: 15.0 mg/kg/injection, schedule: Q03HX024 (ip), vehicle: saline 257 % of control | dose: 16.0 mg/kg/injection, schedule: Q01DX009 (ip), vehicle: saline 212 % of control | dose: 18.0 mg/kg/injection, schedule: Q01DX009 (ip), vehicle: saline 166 % of control | dose: 19.0 mg/kg/injection, schedule: Q01DX009 (ip), vehicle: saline 170 % of control | dose: 27.0 mg/kg/injection, schedule: Q04DX003 (ip), vehicle: saline 158 % of control | dose: 28.8 mg/kg/injection, schedule: Q01DX005 (ip), vehicle: saline 158 % of control | dose: 30.0 mg/kg/injection, schedule: Q03DX003 (ip), vehicle: saline 162 % of control | dose: 40.0 mg/kg/injection, schedule: Q03DX003 (ip), vehicle: saline 165 % of control | dose: 50.0 mg/kg/injection, schedule: Q03DX003 (ip), vehicle: saline 168 % of control | dose: 50.0 mg/kg/injection, schedule: Q04DX002 (ip), vehicle: saline 154 % of control | dose: 54.0 mg/kg/injection, schedule: Q04DX003 (ip), vehicle: saline 159 % of control | dose: 60.0 mg/kg/injection, schedule: Q04DX003 (ip), vehicle: water 170 % of control | dose: 75.0 mg/kg/injection, schedule: Q04DX003 (ip), vehicle: saline 185 % of control and 192 % of control and 199 % of control | dose: 100.0 mg/kg/injection, schedule: Q01DX001 (iv), vehicle: saline 164 % of control | dose: 133.3 mg/kg/injection, schedule: Q01DX001 (ip), vehicle: saline 337 % of control
119 % of control and 223 % of control: dose: 24.0 mg/kg/injection, schedule: Q01DX009 (ip), vehicle: saline

CCOCN(COCC)c1ccc(Cl)cc1
active: [2] 164 % of control

Cc1ccc(O)c(N=Nc2c(O)cc(S(=O)(=O)O)c3ccccc23)c1
inactive: dose: 50.0 mg/kg/injection, schedule: Q01DX009 (ip), vehicle: suspension in saline 100 % of control | dose: 100.0 mg/kg/injection, schedule: Q01DX009 (ip), vehicle: suspension in saline 95 % of control

CS(=N)(=O)CCC(N)P(=O)(O)O (stereo not drawn)
inactive: [1] 95 % of control | dose: 100.0 mg/kg/injection, schedule: Q01DX005 (ip), vehicle: saline 92 % of control | dose: 200.0 mg/kg/injection, schedule: Q01DX005 (ip), vehicle: saline 100 % of control

COC(=O)C(CS)NC(=O)C(Cc1c[nH]c2ccccc12)NC(=O)OC(C)(C)C (stereo not drawn)
inactive: dose: 12.5 mg/kg/injection, schedule: Q01DX009 (ip), vehicle: other 88 % of control | dose: 25.0 mg/kg/injection, schedule: Q01DX009 (ip), vehicle: other 103 % of control | dose: 50.0 mg/kg/injection, schedule: Q01DX009 (ip), vehicle: other 100 % of control | dose: 100.0 mg/kg/injection, schedule: Q01DX009 (ip), vehicle: other 99 % of control | dose: 200.0 mg/kg/injection, schedule: Q01DX009 (ip), vehicle: other 103 % of control

O=P(OCCN(CCOP(=O)(Oc1ccccc1)Oc1ccccc1)c1ccc2ccccc2c1)(Oc1ccccc1)Oc1ccccc1
inactive: [3] 94 % of control | dose: 100.0 mg/kg/injection, schedule: Q01DX009 (ip), vehicle: saline with Tween-80 86 % of control | [2] 96 % of control

S=P(NCCNP(=S)(N1CC1)N1CC1)(N1CC1)N1CC1
inactive: dose: 25.0 mg/kg/injection, schedule: Q04DX003 (ip), vehicle: saline with Tween-80 122 % of control | [3] 95 % of control | dose: 75.0 mg/kg/injection, schedule: Q04DX003 (ip), vehicle: saline with Tween-80 90 % of control | dose: 100.0 mg/kg/injection, schedule: Q04DX003 (ip), vehicle: saline with Tween-80 86 % of control
active: dose: 33.0 mg/kg/injection, schedule: Q04DX003 (ip), vehicle: saline with Tween-80 165 % of control | dose: 50.0 mg/kg/injection, schedule: Q04DX003 (ip), vehicle: saline with Tween-80 170 % of control and 177 % of control

CCOC(=O)C(C)(/C=N/NS(=O)(=O)c1ccc(C)cc1)c1ccccc1 (stereo not drawn)
inactive: dose: 50.0 mg/kg/injection, schedule: Q01DX009 (ip), vehicle: Klucel (hydroxypropylcellulose) (HPC) 106 % of control | dose: 100.0 mg/kg/injection, schedule: Q01DX009 (ip), vehicle: Klucel (hydroxypropylcellulose) (HPC) 98 % of control | dose: 200.0 mg/kg/injection, schedule: Q01DX009 (ip), vehicle: Klucel (hydroxypropylcellulose) (HPC) 100 % of control
